Assay results: paper PMC4891657, “Orexin 2 Receptor Antagonism is Sufficient to Promote NREM and REM Sleep from Mouse to Man” (Scientific Reports, 2016)

Key:
sleep/wake stages = assay: Polysomnography in telemetered wild-type and OX2R knockout mice; type: in vivo, mouse; conditions: 30 mg/kg oral
Method: Polysomnography (PSG) responses to MK-1064 (30 mg/kg) were evaluated following oral administration during the late active phase (administered at Zeitgeber time [ZT] 20:00) either in wild-type or OX2R knockout telemetered mice.
(a) The mean time spent in active wake, light sleep (LS), SWS, and REM sleep during 30-min intervals was determined in wild-type (left panel; n = 5) and OX2R knockout (right panel; n = 7) mice following administration of MK-1064 30 mg/kg (open circles) relative to vehicle (20% vitamin E TPGS, orally; closed circles) during the late active phase (ZT: 20:00). Time points at which significant differences exist between vehicle and MK-1064 responses are indicated by grey vertical lines (*, **, ***p < 0.05, 0.01, 0.001, respectively; linear mixed-effects model for repeated measures).
Continuous PSG recordings were performed following oral MK-1064 or vehicle (20% vitamin E d-alpha tocopheryl polyethylene glycol 1000 succinate [TPGS]) administration. In rodents, electrocorticogram (ECoG) and electromyogram (EMG) and locomotor activity measured via radio-telemetry were scored in 10 second epochs to define light sleep (LS; no movement, moderate EMG tone, theta with <50% delta ECoG [0.5–4 Hz]), slow wave sleep (SWS; no gross movement, reduced EMG, >50% delta ECoG) and rapid eye movement sleep (REM; no movement, little to no EMG activity, primarily theta ECoG [4–7 Hz] activity)[42]. Scored data were then grouped and compiled according to condition (vehicle or compound treatment) averaged over the indicated times (30 minutes or 2 hours) and analyzed statistically as previously described[1][14][40][42]
In male wild-type and Hcrtr1 and 2 homozygous, double knockout mice (Taconic Farms, Germantown, NY), MK-1064 or vehicle was administered during the late active phase (ZT: 20:00, 4 hours before lights on). The effect of compound treatment was assessed using a counterbalanced crossover design in which all animals were alternately treated with drug and vehicle daily for 5 consecutive days with a 2-day intervening washout period. In both mice and rats, the mean time in active wake, LS, SWS and REM sleep was determined for each 30-minute interval. The level of significance for the differences between mean time spent in each stage between the vehicle- and compound-treated groups was determined by a linear mixed-effects model for repeated measures applied t-test, and mean within-subject change relative to vehicle over 2 hours following dosing was analyzed using within-subject ANOVA to determine main effects and one sample t-test to identify significant changes relative to vehicle.

[1] = Safety and tolerability, ascending single-dose study; type: in vivo, human
Description: In the ascending single-dose study, 52 AEs were considered to be related to the study drug, the most common of which was somnolence/sleepiness, drowsiness, and tiredness (15 of 16 subjects dosed with MK-1064), consistent with the intended pharmacological activity. […] In the PSG study, 13 of the 20 subjects enrolled reported ≥1 clinical AE. Of 24 clinical AEs reported, 18 were considered to be related to study treatment, all of which were mild or moderate in intensity. One report of transient sleep paralysis following MK-1064 250 mg was noted, while the most common MK-1064-related AEs were headache (3 subjects), nightmares (2 subjects) and dizziness (1 subject) (Supplementary Table 2).
MK-1064 safety, PK and PD were evaluated in a randomised, double-blind, placebo-controlled, alternating panel, single oral ascending-dose first-in-human study (see Fig. 5). Participants were unmedicated healthy male subjects (age 18–45 years) without a history of physical or mental illnesses or sleep abnormalities. Two panels received alternating single ascending oral doses of MK-1064 in up to 5 treatment periods (Panel A: 5, 25, 100 and 200 mg [fasting conditions], 25 mg [fed condition], or matching placebo; Panel B: 10, 50, 150 and 250 mg [all daytime administration], 50 mg [evening administration], or matching placebo). Within each period, subjects were randomized to active treatment (N = 6) and placebo (N = 2) groups. There was a minimum of 3 days between ascending doses occurring between alternating subject panels to enable safety data review; treatments within subject panels were separated by a minimum 7-day washout period. The safety and tolerability of MK-1064 were monitored throughout the study by repeated evaluations of AEs, clinical assessments (semi-recumbent and orthostatic vital signs measurements, 12-lead electrocardiograms (ECGs), physical examinations, neurologic examinations), and safety laboratory tests (chemistry, hematology, urinalysis).

somnolence / alertness = assay: Karolinska Sleepiness Scale and Bond and Lader VAS in healthy subjects; type: in vivo, human; conditions: all single doses greater than 5 mg
Method: In the ascending single-dose study, doses of MK-1064 ranging from 5 to 250 mg corresponded with dose-dependent changes in measured plasma levels (Fig. 6a). […] The greatest effects were observed between 1 and 4 hours, and effects greatly diminished 8 hours following treatment, consistent with the time course of plasma concentrations of MK-1064.
Figure 6 MK-1064 dose-dependently promotes somnolence and attenuates arousal in healthy human subjects. (a) Plasma concentration of MK-1064 over time following administration of single doses of MK-1064 5–250 mg. (b) Somnolence, as measured by the KSS, and (c) alertness, as measured by the Bond and Lader VAS, over time following administration of single doses of MK-1064 (5–250 mg) or placebo in healthy human subjects (N = 20).
During each treatment period, blood was collected for PK analysis pre-dose and at time points up to 72 hours post-dose. MK-1064 plasma concentrations were determined by reverse phase high-performance liquid chromatography and detected with tandem mass spectrometry. The lower limit of quantitation was 1 ng/mL and the linear calibration range was 1–1000 ng/mL. PK parameters were calculated with WinNonLin 5.2.1. Values below the assay limit of quantification were indicated with a zero value. […]

[2] = wild-type mice, ZT 20:00, vs vehicle

COc1ccc(CNC(=O)c2cc(-c3cncc(Cl)c3)cnc2-c2ccccn2)nc1OC [MK-1064, 5″-chloro-N-[(5,6-dimethoxypyridin-2-yl)methyl]-2,2′:5′, 3″-terpyridine-3′-carbo xamide]
changes in wake, SWS and REM in OX2R knockout mice (sleep/wake stages; OX2R knockout mice, ZT 20:00): absent | time following treatment with active wake reduction and significant increases in SWS and REM (sleep/wake stages; wild-type mice, ZT 20:00): up to 3.5 hours | REM quantitated over 2 hours (sleep/wake stages; [2]): trend toward an increase | changes in wake and SWS quantitated over 2 hours (sleep/wake stages; [2]): reached significance | subjects who experienced headaches ([1]; ascending single-dose study): Nine | suspected serious adverse reactions ([1]; ascending single-dose study): no suspected serious adverse reactions were observed | AEs considered to be related to the study drug ([1]; ascending single-dose study, 5–250 mg): 52 | subjects with somnolence/sleepiness, drowsiness, and tiredness ([1]; ascending single-dose study, subjects dosed with MK-1064): 15 of 16 | tolerability ([1]; both Phase I studies, healthy male subjects): well tolerated | subject-reported somnolence (KSS) and drowsiness (alertness VAS) (somnolence / alertness): Dose-dependent increases
